The values that follow come from patent US20110039333A1, “DEFINED CONDITIONS FOR HUMAN EMBRYONIC STEM CELL CULTURE AND PASSAGE” (UNIVERSITY OF SOUTHERN CALIFORNIA, priority 2009, published 2011).

Common to all, as to type: cell-based, human
The subject of assay [1] is hESC. Put plainly: Xeno-free, feeder-free hESC culture (minimal medium development). The conditions noted are these: for maintenance of hESCs, Wnt ligand replaced by GSK-3 inhibitor: ID-8 containing medium. The method, then:
(§1) For xeno-free, feeder-free culture, the cells were passaged into 2 μg/cm^2 human Fibronectin (Sigma), 10-20 μg/cm^2 human Laminin (Sigma) and 10 μg/cm^2 human Vitronectin (Invitrogen)-coated culture dishes and cultured in DMEM/F-12 supplement with L-glutamine, a non-essential amino acid, ITS, 20-25 ng/ml Wnt3a and 500 nM ID-8, and with or without 4 ng/ml FGF2. The culture medium was changed daily. Some of colonies became detached from the edge region 5 to 7 days after culturing, and then cells were treated with 0.5 mg/ml GRGDTP peptides (AnaSpec) or 1 μg/ml Echistatin (Sigma) and incubated at 37° C. for 15-45 minutes until almost all of the colony starts to detach from the edge region. The colonies were detached and partially dissociated into clumps by gentle pipetting, and then the clumps were washed with culture medium, collected by centrifugation and seeded on new dishes as 1 to 2 split ratio.
The development of a xeno-free, feeder-free hESC culture system using ID-8 and Wnt activation was investigated. After extensive investigation, the inventors determined that the minimal media required to maintain hESC proliferation and pluripotency consisted of DMEM/F-12 with bFGF (4 ng/ml), Wnt3a (25 ng/ml), ID-8 (0.5 μM) and Insulin-Transferrin-Selenium (ITS). […] The inventors next sought to replace the Wnt ligand with several small molecule GSK-3 inhibitors, BIO (11), CHIR99021 (22) and Kenpaullone (23) in ID-8 containing medium with or without bFGF. […] However, in contrast to Wnt ligand containing medium, hESCs became unstable after few passages, subsequently stabilized and maintained pluripotent cores were surrounded with spontaneously differentiated cells (FIG. 5). Under these conditions, manually selection of undifferentiated hESC colonies from the surrounding cells was required at every passage to maintain pluripotent cultures.
(§2) Initially, cells were maintained on Matrigel, a complex animal derived ECM. However, it would be advantageous to use a defined xeno-component-free ECM. […] Because of the extremely low level of protein in these cultures (i.e. no albumin and matrigel), the hESCs are extremely sensitive to damage caused by the dissociation enzymes normally used for passaging. […] To develop a compatible passaging process, the inventors investigated several integrin antagonists.

The test system of a further assay is HES2 cells. The assay is described as follows: Clonal proliferation assay, HES2 cells in MEF-CM. The conditions noted are these: for effect on hESC survival, self-renewal and differentiation: supplement in MEF-CM, colony morphology. The method, then:
The clonal proliferation assay was described previously. Briefly, the hES cells in feeder-free culture were dissociated completely with 0.05% trypsin-EDTA.(Invitrogen), and are seeded at 10^4 cells/well in Matrigel-coated 6-well culture plates and cultured in MEF-conditioned medium. Various concentration of Wnt3a (purified in our laboratory or purchased from Peprotech), IQ-1, ID-8 and/or ICG-001 (all three chemicals were synthesized in our laboratory), were supplemented into the culture media at the onset of seeding, then continuously until the end of culturing. For all assays, the cell and colony morphology were examined under microscope, and the replating efficiency was examined by counting the number of colonies after 7 days of culture.
For quantitative PCR analysis, total RNA was isolated from hESCs cultured in feeder-free condition with or without Wnt3a and Id-8 using RNeasy micro kit (Qiagen). RT was performed with Omniscript (Qiagen) and quantitative RT-PCR was then performed, using each gene-specific primer/probe mix (TaqMan Gene Expression Assays), TaqMan 2× Master Mix, and ABI PRISM 7900 Sequence Detection system (Applied Biosystems, CA) according manufacture's protocol. The PCR data was analyzed by delta/delta OT method and normalized with PPIA expression.
The hESC colonies were fixed with 4% paraformaldehyde, and alkaline phosphatase (ALP) activity was determined with a Vector Blue Alkaline Phosphatase Substrate Kit (Vector Laboratories, CA). Immunostaining was carried out with the following primary antibodies: TRA-1-60 and TRA-1-80 (Santa Cruz Biotechnology, CA), anti-stage specific embryonic antigen (SSEA)-3 and -4 (Developmental Studies Hybridoma Bank at the University of Iowa), anti-OCT-3 (clone C-10, Santa Cruz Biotechnology, CA), or goat anti-Nanog (R&D systems, MN). Then, samples were incubated with Alexa Fluor 488- or 594-conjugated (Molecular Probes, NY), then detected with indirect immunofluorscence microscopy.
The effects of canonical Wnt ligand, Wnt3a and several small molecule Wnt signaling modulators in a clonal proliferation assay were investigated first (9) (FIG. 3A). When HES2 cells (2) were dissociated into single cells and seeded on Matrigel-coated plates in mouse embryonic fibroblast-conditioned medium (MEF-CM)(20), the colony forming efficiency was ˜0.6% (replating efficiency: colony number/seeded cell number). Supplementation with Wnt3a enhanced colony formation (˜1% at 100 ng/ml). The colonies were larger and consisted of more cells. […] ID-8, which was identified in the same screen as IQ-1 (21), also enhances the β-catenin/CBP association and increased hESC survival (˜1.1% at 0.5 μM). […] To examine the scope of this effect in hESC, clonal proliferation assays were performed with the additional hESC lines, HES3 (2) and H9 (1) (FIG. 3H).

Assay [2] deals with hESC. Put plainly: Passaging by integrin antagonists (colony detachment). The conditions noted are these: xeno-free medium, FLV-coated dishes. The method, then: as §1, §2

On to `Cc1c[nH]c(-c2cnc(NCCNc3ccc(C#N)cn3)nc2-c2ccc(Cl)cc2Cl)n1` [CHIR90021], for which the “maintenance of hESCs, Wnt ligand replaced by GSK-3 inhibitor” value in the assay with hESC [1] (0.2 μM plus bFGF) was “could maintain hESCs”.
Turning to `O=C1[C@H](Cc2ccc(O)cc2)N2C(=O)CCN(C(=O)NCc3ccccc3)[C@H]2CN1Cc1cccc2ccccc12` [ICG-001], in the assay with HES2 cells, the “effect on hESC survival, self-renewal and differentiation” value is “strongly induced cell differentiation and death”.
For the molecule `CC(=O)c1ccc(NN=C(C(N)=O)C2=NC(C)(C)Cc3ccccc32)cc1` [IQ-1], in the assay with HES2 cells (in presence of Wnt3a, MEF-CM), the “effect on Wnt-induced differentiation” value is “somewhat prevented Wnt-induced differentiation”. Moreover, the “effect on hESC survival, self-renewal and differentiation” value in the assay with HES2 cells is on record as “did not significantly affect hESC self-renewal by itself”.
`O=C1Cc2c([nH]c3ccc(Br)cc23)-c2ccccc2N1` [Kenpaullone]: the “maintenance of hESCs, Wnt ligand replaced by GSK-3 inhibitor” value with hESC [1] (0.5 μM plus bFGF), in the assay with hESC [1] (1.0 μM plus bFGF) and with hESC [1] (1.0 μM without bFGF) was “could maintain hESCs” each time.
Echistatin: the “colony detachment and passage of hESC” value in the assay with hESC [2] is “effectively caused colony detachment”.
Consider “bFGF: basic fibroblast growth factor, recombinant FGF2 (Peprotech)”, for which the “hESC morphology and proliferation” value in the assay on hESC [1] (bFGF removed from minimal medium) is reported as “proliferation was significantly diminished”.

B1: Wnt3a: canonical Wnt ligand protein, purified in the laboratory or purchased from Peprotech (protein, UniProt P56704 19-352, looked up)
Protein Wnt-3a: SYPIWWSLAVGPQYSSLGSQPILCASIPGLVPKQLRFCRNYVEIMPSVAEGIKIGIQECQHQFRGRRWNCTTVHDSLAIFGPVLDKATRESAFVHAIASAGVAFAVTRSCAEGTAAICGCSSRHQGSPGKGWKWGGCSEDIEFGGMVSREFADARENRPDARSAMNRHNNEAGRQAIASHMHLKCKCHGLSGSCEVKTCWWSQPDFRAIGDFLKDKYDSASEMVVEKHRESRGWVETLRPRYTYFKVPTERDLVYYEASPNFCEPNPETGSFGTRDRTCNVSSHGIDGCDLLCCGRGHNARAERRREKCRCVFHWCCYVSCQECTRVYDVHTCK
In the case of B1, the “replating efficiency (colony number/seeded cell number)” value in the assay on HES2 cells (Wnt3a at 100 ng/ml, single cells on Matrigel in MEF-CM, control ~0.6%) is on record as around 1%. The “effect on hESC survival, self-renewal and differentiation” value in the assay with HES2 cells was “enhances hESC survival and proliferation but also induces differentiation”.
